Patent US20230364118A1, “RIBITOL TREATMENT” (priority 2020, published 2023)

Experiments:
[1] = Metabolic stability in liver microsomes, cytosol, hepatocytes; format: in vitro ADME
Method: Metabolic stability of ribitol was conducted in liver microsomes, cytosol, and primary hepatocytes, from CD-1 mouse, Sprague-Dawley rat, Gottingen minipig, and human at a concentration of ribitol of 10 μM.

L276I FKRP mutant mice = experiment: Efficacy in L276I FKRP mutant mouse model; format: in vivo
Method: The more common LGMD2i FKRP L276I mutation was studied in a murine model of disease. […] Total running time was increased in these dosing groups (FIG. 7C).
The effect of ribitol on an additional model of LGMD2i was evaluated in mice with the L276I FKRP mutation. L276I mutant mice were treated with ribitol at single daily doses of 0.5 g/kg, 2 g/kg, 5 g/kg, and 5 g/kg BID by oral gavage from the age of 8 weeks when the mild dystrophic phenotype is detectable. The duration of treatment was one year. Ribitol was dissolved in saline and administered by oral gavage. The same methods described above were applied to evaluate expression of matriglycan and muscle pathology.

[2] = Chronic (6 months) administration in mice; format: in vivo, mouse
Method: This response subsided at 48 hours after termination of treatment. No other adverse findings have been identified thus far with ribitol.

[3] = CD-1, mouse, liver cytosol, Cytosol
[4] = CD-1, mouse, liver microsomes, Microsomes
[5] = CD-1, mouse, primary hepatocytes, Hepatocytes
[6] = Gottingen, minipig, liver cytosol, Cytosol
[7] = Gottingen, minipig, liver microsomes, Microsomes
[8] = Gottingen, minipig, primary hepatocytes, Hepatocytes
[9] = Sprague-Dawley, rat, liver cytosol, Cytosol
[10] = Sprague-Dawley, rat, liver microsomes, Microsomes
[11] = Sprague-Dawley, rat, primary hepatocytes, Hepatocytes
[12] = human, liver microsomes, Microsomes
[13] = human, primary hepatocytes, Hepatocytes

## OC[C@@H](O)[C@@H](O)[C@@H](O)CO [ribitol, (2R,3s,4S)-Pentane-1,2,3,4,5-pentol]
[1]; [3]
  CLint scaled at 10 μM: 4.75 mL/min/kg
  half-life at 10 μM: 9.63 h
[1]; [4]
  CLint scaled at 10 μM: < 29.3 mL/min/kg
  half-life at 10 μM: > 3.12 h
[1]; [5]
  CLint scaled at 10 μM: < 22.6 mL/min/kg
  half-life at 10 μM: > 6.07 h
[1]; [6]
  CLint scaled at 10 μM: 2.71 mL/min/kg
  half-life at 10 μM: 3.27 h
[1]; [7]
  CLint scaled at 10 μM: < 5.56 mL/min/kg
  half-life at 10 μM: > 3.12 h
[1]; [8]
  CLint scaled at 10 μM: < 9.16 mL/min/kg
  half-life at 10 μM: > 6.07 h
[1]; [9]
  CLint scaled at 10 μM: 4.83 mL/min/kg
  half-life at 10 μM: 4.3 h
[1]; [10]
  CLint scaled at 10 μM: < 13.3 mL/min/kg
  half-life at 10 μM: > 3.12 h
[1]; [11]
  CLint scaled at 10 μM: < 8.89 mL/min/kg
  half-life at 10 μM: > 6.07 h
[1]; human, liver cytosol, Cytosol
  CLint scaled at 10 μM: 1.64 mL/min/kg
  half-life at 10 μM: 6.35 h
[1]; [12]
  CLint scaled at 10 μM: < 6.66 mL/min/kg
  half-life at 10 μM: > 3.12 h
[1]; [13]
  CLint scaled at 10 μM: < 5.28 mL/min/kg
  half-life at 10 μM: > 6.07 h
L276I FKRP mutant mice; 1 year oral dosing
  creatine kinase: reduced with increasing doses
  expression of matriglycan on αDG (immunohistochemistry): increases in a dose dependent manner
L276I FKRP mutant mice; 2 g/kg/day
  increase in treadmill running distance: 14%
L276I FKRP mutant mice; all treatment groups
  matriglycan expression (immunohistochemistry): increased matriglycan expression
L276I FKRP mutant mice; six months, 2, 5 g/kg, 5 g/kg/dose BID, 3.3 g/kg/dose TID
  treadmill running distance: trend toward improved running distance
L276I FKRP mutant mice; six months, same dosing groups
  total running time: increased
[2]; 6 months, ≥2 g/kg/day
  adverse findings: intestinal bloating and soft stool were observed
[2]; intestinal bloating and soft stool
  time for response to subside after termination of treatment: 48 h
